Biological target: T1, sulfamidase (wild-type mouse DBS) (Mus musculus, UniProt Q9EQ08)
T1 sequence (Q9EQ08 23-502): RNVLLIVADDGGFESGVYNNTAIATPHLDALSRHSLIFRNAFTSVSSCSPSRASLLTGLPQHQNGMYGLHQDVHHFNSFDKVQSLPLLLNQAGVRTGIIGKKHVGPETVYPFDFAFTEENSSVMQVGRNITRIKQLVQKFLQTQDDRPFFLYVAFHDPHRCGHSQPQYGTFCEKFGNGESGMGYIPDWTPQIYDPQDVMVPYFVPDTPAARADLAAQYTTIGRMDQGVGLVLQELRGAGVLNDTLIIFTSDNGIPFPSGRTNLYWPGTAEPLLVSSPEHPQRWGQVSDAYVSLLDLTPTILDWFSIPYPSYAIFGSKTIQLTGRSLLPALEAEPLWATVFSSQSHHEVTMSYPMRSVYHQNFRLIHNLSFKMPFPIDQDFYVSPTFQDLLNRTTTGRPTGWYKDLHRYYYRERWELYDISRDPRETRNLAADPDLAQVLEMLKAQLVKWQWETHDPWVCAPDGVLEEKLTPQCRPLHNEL
Assay: LC-MS/MS product formation in dried blood spot, knockout mouse control
Assay type: biochemical
Details: 1 mM substrate, otherwise same

O=S(=O)(O)N[C@H]1[C@@H](Oc2ccc3ccccc3c2)O[C@H](CO)[C@@H](O)[C@@H]1O [MPS-IIIA-S, 2-sulfamate-2-deoxy-1-α-(2-naphthyl)-glucopyranoside]
LC-MS/MS product formation in dried blood spot, knockout mouse control: sulfamidase activity was readily detected in a DBS made using blood from a wild-type mouse

Source: article PMC6175634 (Molecular genetics and metabolism, 2018)
